This assay has as its system 2F5 mAb. Kind of assay: SPR assay with liposome-anchored peptides. Particulars: 10 seconds after the injection was stopped; peptide anchored to liposomes. The format is binding. (SPR reads the build-up and loss of mass on a sensor chip optically.)

The values that follow come from patent publication US9402917B2, “Methods for the induction of broadly anti-HIV-1 neutralizing antibody responses employing liposome-MPER peptide compositions” (priority 2009, dated 2016).

Regarding “QQEKNEQELLELDKWASLWNYKRWIILGLNKIVRMYS-biotin [consensus 2F5 epitope]”, the “binding response (background subtracted)” value was found to be 494.6 response unit.

With “QQEKNEQELLELDKWASSWNYKRWIILGLNKIVRMYS-biotin”, the “binding response (background subtracted)” value amounted to 616.7 response unit.
